{"source": "paper PMC11637191", "about": "“The pH-dependence of efflux ratios determined with bidirectional transport assays across cellular monolayers” (International Journal of Pharmaceutics: X, 2024)", "key": {"MDCK-MDR1 cells [1]": {"system": "MDCK-MDR1 cells", "test": "Comparison of Papp,B-A with and without inhibitor in MDCK-MDR1 cells (own and literature data)", "details": "calculated from literature Papp,B⟶A and Papp with inhibitor; pH 7.4 iso-method"}, "MDCK-MDR1 cells [2]": {"system": "MDCK-MDR1 cells", "details": "pH 7.4 iso-method, cited from earlier work; for Papp, inhibitor: with inhibitor; for Papp, B⟶A: without inhibitor"}, "[3]": {"test": "Calculation of neutral fraction (fn)", "details": "neutral fraction at pH 9"}, "[4]": {"details": "ref Troutman and Thakker (2003)"}}, "note": "Like-named read-outs stand apart in the source and are kept apart here."}
{"smiles": "CN(C)CCC(c1ccc(Cl)cc1)c1ccccn1", "note": "(stereo not shown) [Chlorpheniramine]", "values": [{"measurement": "Factor difference", "setting": "MDCK-MDR1 cells [1]", "result": 1}, {"measurement": "Papp, inhibitor", "setting": "MDCK-MDR1 cells [2]; ref Obradovic et al. (2007)", "result": 66.2, "unit": "×10⁻⁶ cm/s"}, {"measurement": "Papp, B⟶A", "setting": "MDCK-MDR1 cells [2]; ref Obradovic et al. (2007)", "result": 93.7, "unit": "×10⁻⁶ cm/s"}]}
{"smiles": "C[C@H]1C[C@@H]2[C@H]([C@@H](O)C[C@@]3(C)[C@H]2CC[C@]3(O)C(=O)CO)[C@@]2(C)C=CC(=O)C=C12", "note": "[Methylprednisolone]", "values": [{"measurement": "Factor difference", "setting": "MDCK-MDR1 cells [1]", "result": 3}, {"measurement": "Papp, inhibitor", "setting": "MDCK-MDR1 cells [2]; [4]", "result": 28.48, "unit": "×10⁻⁶ cm/s"}, {"measurement": "Papp, B⟶A", "setting": "MDCK-MDR1 cells [2]; [4]", "result": 94.3, "unit": "×10⁻⁶ cm/s"}]}
{"smiles": "NS(=O)(=O)c1cc(C(=O)O)c(NCc2ccco2)cc1Cl", "note": "[Furosemide]", "values": [{"measurement": "fn", "setting": "[3]", "result": 0.0, "unit": "%"}]}
{"smiles": "CN(C)C(=O)Oc1cccc([N+](C)(C)C)c1", "note": "[Neostigmine]", "values": [{"measurement": "Factor difference", "setting": "MDCK-MDR1 cells [1]", "result": 2}, {"measurement": "Papp, inhibitor", "setting": "MDCK-MDR1 cells [2]; ref Doan et al. (2002)", "result": 0.852, "unit": "×10⁻⁶ cm/s"}, {"measurement": "Papp, B⟶A", "setting": "MDCK-MDR1 cells [2]; ref Doan et al. (2002)", "result": 1.54, "unit": "×10⁻⁶ cm/s"}]}
{"smiles": "C=C[C@H]1C[N@@]2CC[C@H]1C[C@@H]2[C@@H](O)c1ccnc2ccc(OC)cc12", "note": "[Quinidine]", "values": [{"measurement": "Papp, inhibitor", "setting": "MDCK-MDR1 cells [2]; ref Gertz et al. (2010)", "result": 0.176, "unit": "×10⁻⁶ cm/s"}, {"measurement": "Papp, inhibitor", "setting": "MDCK-MDR1 cells [2]; [4]", "result": 25.6, "unit": "×10⁻⁶ cm/s"}, {"measurement": "Papp, inhibitor", "setting": "MDCK-MDR1 cells [2]; ref Wang et al. (2005)", "result": 10, "unit": "×10⁻⁶ cm/s"}, {"measurement": "Papp, B⟶A", "setting": "MDCK-MDR1 cells [2]; ref Gertz et al. (2010)", "result": 66.88, "unit": "×10⁻⁶ cm/s"}, {"measurement": "Papp, B⟶A", "setting": "MDCK-MDR1 cells [2]; [4]", "result": 156, "unit": "×10⁻⁶ cm/s"}, {"measurement": "Papp, B⟶A", "setting": "MDCK-MDR1 cells [2]; ref Wang et al. (2005)", "result": 114.82, "unit": "×10⁻⁶ cm/s"}]}
{"smiles": "Cc1c(O)cccc1C(=O)N[C@@H](CSc1ccccc1)[C@H](O)CN1C[C@H]2CCCC[C@H]2C[C@H]1C(=O)NC(C)(C)C", "note": "[Nelfinavir]", "values": [{"measurement": "Factor difference", "setting": "MDCK-MDR1 cells [1]", "result": 4}, {"measurement": "Papp, inhibitor", "setting": "MDCK-MDR1 cells [2]; ref Doan et al. (2002)", "result": 19.7, "unit": "×10⁻⁶ cm/s"}, {"measurement": "Papp, B⟶A", "setting": "MDCK-MDR1 cells [2]; ref Doan et al. (2002)", "result": 78.6, "unit": "×10⁻⁶ cm/s"}]}
{"smiles": "CC[C@]1(O)C[C@@H]2CN(CCc3c([nH]c4ccccc34)[C@@](C(=O)OC)(c3cc4c(cc3OC)N(C)[C@H]3[C@@](O)(C(=O)OC)[C@H](OC(C)=O)[C@]5(CC)C=CCN6CC[C@]43[C@@H]65)C2)C1", "note": "[Vinblastine]", "values": [{"measurement": "Papp, inhibitor", "setting": "MDCK-MDR1 cells [2]; ref Taub et al. (2005)", "result": 1.92, "unit": "×10⁻⁶ cm/s"}, {"measurement": "Papp, inhibitor", "setting": "MDCK-MDR1 cells [2]; [4]", "result": 17.7, "unit": "×10⁻⁶ cm/s"}, {"measurement": "Papp, inhibitor", "setting": "MDCK-MDR1 cells [2]; ref Wang et al. (2005)", "result": 1.2, "unit": "×10⁻⁶ cm/s"}, {"measurement": "Papp, B⟶A", "setting": "MDCK-MDR1 cells [2]; ref Taub et al. (2005)", "result": 13.22, "unit": "×10⁻⁶ cm/s"}, {"measurement": "Papp, B⟶A", "setting": "MDCK-MDR1 cells [2]; [4]", "result": 35.7, "unit": "×10⁻⁶ cm/s"}, {"measurement": "Papp, B⟶A", "setting": "MDCK-MDR1 cells [2]; ref Wang et al. (2005)", "result": 10.77, "unit": "×10⁻⁶ cm/s"}]}
{"smiles": "CN1CCC[C@@H]1Cc1c[nH]c2ccc(CCS(=O)(=O)c3ccccc3)cc12", "note": "[Eletriptan]", "values": [{"measurement": "Factor difference", "setting": "MDCK-MDR1 cells [1]", "result": 2}, {"measurement": "Papp, inhibitor", "setting": "MDCK-MDR1 cells [2]; ref Doan et al. (2002)", "result": 42.9, "unit": "×10⁻⁶ cm/s"}, {"measurement": "Papp, B⟶A", "setting": "MDCK-MDR1 cells [2]; ref Doan et al. (2002)", "result": 66.3, "unit": "×10⁻⁶ cm/s"}]}
{"smiles": "CC(C)(C)NC(=O)[C@@H]1C[C@@H]2CCCC[C@@H]2CN1C[C@@H](O)[C@H](Cc1ccccc1)NC(=O)[C@H](CC(N)=O)NC(=O)c1ccc2ccccc2n1", "note": "[Saquinavir]", "values": [{"measurement": "Papp, inhibitor", "setting": "MDCK-MDR1 cells [2]; ref Doan et al. (2002)", "result": 22, "unit": "×10⁻⁶ cm/s"}, {"measurement": "Papp, inhibitor", "setting": "MDCK-MDR1 cells [2]; [4]", "result": 12.6, "unit": "×10⁻⁶ cm/s"}, {"measurement": "Papp, B⟶A", "setting": "MDCK-MDR1 cells [2]; ref Doan et al. (2002)", "result": 39.5, "unit": "×10⁻⁶ cm/s"}, {"measurement": "Papp, B⟶A", "setting": "MDCK-MDR1 cells [2]; [4]", "result": 108, "unit": "×10⁻⁶ cm/s"}]}
{"smiles": "CN(C)CCC(c1ccc(Br)cc1)c1ccccn1", "note": "(stereo not shown) [Brompheniramine]", "values": [{"measurement": "Factor difference", "setting": "MDCK-MDR1 cells [1]", "result": 2}, {"measurement": "Papp, inhibitor", "setting": "MDCK-MDR1 cells [2]; ref Obradovic et al. (2007)", "result": 76.8, "unit": "×10⁻⁶ cm/s"}, {"measurement": "Papp, B⟶A", "setting": "MDCK-MDR1 cells [2]; ref Obradovic et al. (2007)", "result": 118.8, "unit": "×10⁻⁶ cm/s"}]}
{"smiles": "CN(C)C(=O)C(CCN1CCC(O)(c2ccc(Cl)cc2)CC1)(c1ccccc1)c1ccccc1", "note": "[Loperamide]", "values": [{"measurement": "Papp, inhibitor", "setting": "MDCK-MDR1 cells [2]; ref Doan et al. (2002)", "result": 45.6, "unit": "×10⁻⁶ cm/s"}, {"measurement": "Papp, inhibitor", "setting": "MDCK-MDR1 cells [2]; ref Wang et al. (2005)", "result": 12, "unit": "×10⁻⁶ cm/s"}, {"measurement": "Papp, B⟶A", "setting": "MDCK-MDR1 cells [2]; ref Doan et al. (2002)", "result": 77.3, "unit": "×10⁻⁶ cm/s"}, {"measurement": "Papp, B⟶A", "setting": "MDCK-MDR1 cells [2]; ref Wang et al. (2005)", "result": 42.64, "unit": "×10⁻⁶ cm/s"}]}
{"smiles": "CC(C)(C)c1ccc(C(O)CCCN2CCC(C(O)(c3ccccc3)c3ccccc3)CC2)cc1", "note": "(stereo not shown) [Terfenadine]", "values": [{"measurement": "Papp, inhibitor", "setting": "MDCK-MDR1 cells [2]; ref Doan et al. (2002)", "result": 28.5, "unit": "×10⁻⁶ cm/s"}, {"measurement": "Papp, inhibitor", "setting": "MDCK-MDR1 cells [2]; ref Obradovic et al. (2007)", "result": 2.39, "unit": "×10⁻⁶ cm/s"}, {"measurement": "Papp, B⟶A", "setting": "MDCK-MDR1 cells [2]; ref Doan et al. (2002)", "result": 42.1, "unit": "×10⁻⁶ cm/s"}, {"measurement": "Papp, B⟶A", "setting": "MDCK-MDR1 cells [2]; ref Obradovic et al. (2007)", "result": 11.43, "unit": "×10⁻⁶ cm/s"}]}
